Assays:
Conditions in all cases: incubation time: 72 h
HDQ-P1 = test: drug sensitivity score (DSS), CellTox Green (DSS (AUC-based score)); higher = stronger drug effect (viability inhibition or cytotoxicity); extreme values may be limits of the assay
Procedure, shortened: (§1)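 The drug sensitivity score was computed from the area under the fitted dose-response curve. Breast cancer cell lines in 20 µl suspension went into 384-well plates holding compound at 5 concentrations (10-fold steps over a 10,000-fold, compound-specific range) for 72 h of incubation. CellTox Green fluorescence (485/520 nm) was read before CellTiter-Glo luminescence, the latter after 10 min at room temperature, and each plate was normalised to 0.1 % DMSO and a positive kill control.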

CAL-51 = test: as above
Procedure, shortened: as §1

CAL-85-1 [1] = test: as above
Procedure, shortened: as §1

MDA-MB-453 = test: as above
Procedure, shortened: as §1

DU-4475 [2] = test: as above
Procedure, shortened: as §1

CAL-148 = test: as above
Procedure, shortened: as §1

MDA-MB-231 [3] = test: as above
Procedure, shortened: as §1

HCC1937 [4] = test: as above
Procedure, shortened: as §1

Hs578T [5] = test: as above
Procedure, shortened: as §1

HCC1143 [6] = test: as above
Procedure, shortened: as §1

MCF-10A = test: as above
Procedure, shortened: as §1

MFM-223 [7] = test: as above
Procedure, shortened: as §1

BT-474 [8] = test: as above
Procedure, shortened: as §1

MDA-MB-436 = test: as above
Procedure, shortened: as §1

BT-549 [9] = test: as above
Procedure, shortened: as §1

CAL-85-1 [10] = test: drug sensitivity score (DSS), CellTiter-Glo (DSS (AUC-based score)); higher = stronger drug effect (viability inhibition or cytotoxicity); extreme values may be limits of the assay
Procedure, shortened: as §1

HCC1599 = test: as above
Procedure, shortened: as §1

DU-4475 [11] = test: as above
Procedure, shortened: as §1

MDA-MB-468 = test: as above
Procedure, shortened: as §1

MDA-MB-231 [12] = test: as above
Procedure, shortened: as §1

HCC1937 [13] = test: as above
Procedure, shortened: as §1

CAL-120 = test: as above
Procedure, shortened: as §1

Hs578T [14] = test: as above
Procedure, shortened: as §1

HCC1143 [15] = test: as above
Procedure, shortened: as §1

MFM-223 [16] = test: as above
Procedure, shortened: as §1

BT-474 [17] = test: as above
Procedure, shortened: as §1

BT-549 [18] = test: as above
Procedure, shortened: as §1

Compound	drug sensitivity score (HDQ-P1)	drug sensitivity score (CAL-51)	drug sensitivity score (CAL-85-1 [1])	drug sensitivity score (MDA-MB-453)	drug sensitivity score (DU-4475 [2])	drug sensitivity score (CAL-148)	drug sensitivity score (MDA-MB-231 [3])	drug sensitivity score (HCC1937 [4])	drug sensitivity score (Hs578T [5])	drug sensitivity score (HCC1143 [6])	drug sensitivity score (MCF-10A)	drug sensitivity score (MFM-223 [7])	drug sensitivity score (BT-474 [8])	drug sensitivity score (MDA-MB-436)	drug sensitivity score (BT-549 [9])	drug sensitivity score (CAL-85-1 [10])	drug sensitivity score (HCC1599)	drug sensitivity score (DU-4475 [11])	drug sensitivity score (MDA-MB-468)	drug sensitivity score (MDA-MB-231 [12])	drug sensitivity score (HCC1937 [13])	drug sensitivity score (CAL-120)	drug sensitivity score (Hs578T [14])	drug sensitivity score (HCC1143 [15])	drug sensitivity score (MFM-223 [16])	drug sensitivity score (BT-474 [17])	drug sensitivity score (BT-549 [18])
Oc1ccc2c(c1)CC[C@H](c1ccccc1)[C@@H]2c1ccc(OCCN2CCCC2)cc1 [Lasofoxifene]	0	0	3.43	0	0	0	0	0	3.26	0	0	0	0	0	0	0	0	0	0	0	0	0	0	0	0	0	0
O=C(Nc1ccncc1)C(=O)c1cn(Cc2ccc(Cl)cc2)c2ccccc12 [Indibulin]	0	12.5	11.7	0	0	0	8.72	0	1.65	0	0	4.4	1.31	0	0	13	7.03	1.15	12.2	3.55	3.81	6.2	7.7	5.89	7.28	4.97	12.6
c1ccc2c(CCNc3ccc(Nc4ccncc4)cc3)c[nH]c2c1 [Serdemetan]	0	4.55	0	0	1.51	6.44	2.18	0	0	0	0	1.92	0	0	0	1.35	3.17	7.09	7.12	3.86	3.14	0	0.96	0	1.34	4.79	6.83
COc1cc(OC2CCN(C)CC2)ccc1Nc1ncc2c(n1)n(C1CCCC1)c(=O)n2C [AZ 3146]	0	9.75	0	0	0	0	0		0	0	0	0	0	4.7	0	2.31	1.58	0	2.06	0	0	0.593	0	0	0	2.51	0
COCC1(CO)C(=O)C2CCN1CC2 (stereo unspecified) [Prima-1 Met]	0	0	0	0	0	0	0	1.24	0	0	0	0	0		0	0	0	0	0	0	0	0	0	0	0	0	2.79
O=P1(N(CCCl)CCCl)NCCCO1 (stereo unspecified) [Cyclophosphamide]	0	0	0	0	0	0	0	0		0	0	0	0	0	0	0	0	0	0	0	0	0	0	0	0	0	0
CCn1c(-c2nonc2N)nc2cnc(Oc3cccc(NC(=O)c4ccc(OCCN5CCOCC5)cc4)c3)cc21	0	11.2	0	0	0	0	4.85	0	0		0	0	0	0	0	0	0	0.276	0	3.83	0	6.49	6.04	0	0	5.28	5.62
O=C(Nc1cccnc1)N1CCC(Cc2cccc(Oc3ccc(C(F)(F)F)cn3)c2)CC1 [PF-3845]		0	0	0	0	0	0	0	0	0	0	0	0	0	0	0.0221	1.04	0	3.47	0	0	0.24	0	0	0	0	1.34
S=P(N1CC1)(N1CC1)N1CC1 [Thio-TEPA]	0		0	0	0	0	0	0	3.7		0	0	0	0	0	0	0	0	0	0	0	0	0	0	0	0	1.83
NC(=O)c1ccc(I)c([N+](=O)[O-])c1 [Iniparib]	1.99	0.811	0	0	0	0	0	0		1.54	1.4	0	0	0	0	0	0	0	3.75	0	0	0	0	0	0	0	0
COc1cc2ncnc(Nc3ccc(F)c(Cl)c3)c2cc1OCCCN1CCOCC1 [Gefitinib]	0	0	4.48	0	0	2.34	0.542	0	0	0	0	0		0	0	9.09	0	0	5.4	0	2.45	0	0	0	0	0	0
Cc1ccc(NC(=O)c2ccc(CN3CCN(C)CC3)cc2)cc1Nc1nc(-c2cccnc2)cs1 [Masitinib]	0	0	0	0	0	0	5.53	0	1.55	0	0	0	0		0	0	1.31	0	4.71	1.26	0.648	0	0	0	0.34	1.81	3.23
CN(C)CCOc1ccc(/C(=C(/CCCl)c2ccccc2)c2ccccc2)cc1 [Toremifene]	0	0	0	0	0	0		5.17	0	2.33	0	0	2.47	0	0	0	0	0	0	0	1.98	0	0	0	0.949	1.35	0
CNC(=O)c1ccc(N2C(=S)N(c3ccc(C#N)c(C(F)(F)F)c3)C(=O)C23CCC3)cc1F [RD162]	0	0	0	0	0	0	0	0	0		0	0	0	0	0	0	0	0	0	0	0	0	0	0	0	3.77e-05	0

From the supplement of paper PMC4862054
